Values joined by “and” are separate entries in the source; they are usually repeats but may differ in a detail not shown here. Equal entries are not always repeated. “Also recorded” adds a separate entry of the source. Where two headings read alike, the source gives them in different places. Square brackets hold non-standard residues; d marks the D form. Peptide text beside a SMILES is read from it. Bip = N[C@@H](Cc1ccc(-c2ccccc2)cc1)C(=O)O; dBip = N[C@H](Cc1ccc(-c2ccccc2)cc1)C(=O)O; dPhe(4-I) = N[C@H](Cc1ccc(I)cc1)C(=O)O; Bta = N[C@@H](Cc1csc2ccccc12)C(=O)O; 3Pal = N[C@@H](Cc1cccnc1)C(=O)O; 2Thi = N[C@@H](Cc1cccs1)C(=O)O
Experiments:
[1] = biological target: T1, mMC5R (Mus musculus, UniProt P41149); details: read-out: mMC5R EC50, reference peptide from the literature, cited from earlier work
[2] = biological target: T2, mMC4R (Mus musculus, UniProt P56450); assay: CRE/β-galactosidase reporter gene bioassay, agonist activity at mMC4R; format: cell-based; details: ligand at 100 μM, compared to maximal response generated by α-MSH
[3] = biological target: T3, mMC3R (Mus musculus, UniProt P33033); assay: Antagonist Schild analysis against agonist MTII at mMC3R; format: cell-based; details: for mMC3R pharmacology class printed in Fold Diff column (Ant, SA): Ant = antagonist, SA = some stimulatory activity at 100 µM
[4] = biological target: T4, mMC1R (Mus musculus, UniProt Q01727); assay: CRE/β-galactosidase reporter gene bioassay, agonist activity at mMC1R; format: cell-based; details: for mMC1R Fold Diff: fold difference in EC50 vs peptide 1, negative prefix = more potent than 1; for EC50: mMC1R EC50, agonist, HEK-293 cells stably expressing receptor, ±SEM; for mMC1R pharmacology in words: comparisons are to reference peptide 1
[5] = biological target: T1, mMC5R; assay: CRE/β-galactosidase reporter gene bioassay, agonist activity at mMC5R; format: cell-based; details: for mMC5R pharmacology in words: comparisons are to reference peptide 1; for mMC5R Fold Diff.: fold difference in EC50 vs peptide 1, negative prefix = more potent than 1; for mMC5R fold less potent than peptide 1: less potent than 1
[6] = biological target: T3, mMC3R; assay: cell-based; format: cell-based
[7] = biological target: T2, mMC4R; assay: Antagonist Schild analysis against agonist MTII at mMC4R; format: cell-based; details: for mMC4R pharmacology class printed in Fold Diff. column (Ant, SA): Ant = antagonist, SA = some stimulatory activity at 100 µM
[8] = biological target: T3, mMC3R; details: read-out: mMC3R EC50, reference peptide from the literature, cited from earlier work
[9] = biological target: T4, mMC1R; details: read-out: mMC1R EC50, reference peptide from the literature, cited from earlier work
[10] = biological target: T2, mMC4R; details: read-out: mMC4R EC50; reference peptide from the literature; ref [31]; cited from earlier work
[11] = ligand at 100 μM, compared to maximal response generated by α-MSH

T1 sequence (P41149 whole entry): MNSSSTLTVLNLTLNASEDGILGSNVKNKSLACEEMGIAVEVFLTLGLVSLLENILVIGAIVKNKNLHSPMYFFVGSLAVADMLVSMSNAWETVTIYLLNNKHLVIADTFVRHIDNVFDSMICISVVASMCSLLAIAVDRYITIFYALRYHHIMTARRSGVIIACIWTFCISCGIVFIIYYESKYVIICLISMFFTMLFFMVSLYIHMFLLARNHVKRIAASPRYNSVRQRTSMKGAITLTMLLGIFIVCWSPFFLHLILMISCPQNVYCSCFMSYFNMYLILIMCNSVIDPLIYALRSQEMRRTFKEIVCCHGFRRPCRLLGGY
T3 sequence (P33033 whole entry): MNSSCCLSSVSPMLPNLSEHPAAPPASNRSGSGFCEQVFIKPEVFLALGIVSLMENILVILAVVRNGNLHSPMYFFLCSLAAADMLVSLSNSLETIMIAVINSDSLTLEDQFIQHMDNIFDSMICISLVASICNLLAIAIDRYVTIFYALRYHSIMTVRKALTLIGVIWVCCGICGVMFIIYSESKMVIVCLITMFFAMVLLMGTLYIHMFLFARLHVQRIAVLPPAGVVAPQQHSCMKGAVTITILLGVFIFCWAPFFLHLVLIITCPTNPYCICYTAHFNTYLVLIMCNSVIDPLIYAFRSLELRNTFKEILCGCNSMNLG
T4 sequence (Q01727 whole entry): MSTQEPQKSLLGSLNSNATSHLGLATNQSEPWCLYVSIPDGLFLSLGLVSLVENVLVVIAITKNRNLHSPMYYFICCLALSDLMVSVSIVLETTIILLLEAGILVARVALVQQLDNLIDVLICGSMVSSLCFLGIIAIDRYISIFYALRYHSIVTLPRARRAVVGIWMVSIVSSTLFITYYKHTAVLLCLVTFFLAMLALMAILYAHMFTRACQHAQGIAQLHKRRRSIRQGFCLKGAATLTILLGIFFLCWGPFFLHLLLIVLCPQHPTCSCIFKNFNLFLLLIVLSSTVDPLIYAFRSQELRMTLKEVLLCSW
T2 sequence (P56450 whole entry): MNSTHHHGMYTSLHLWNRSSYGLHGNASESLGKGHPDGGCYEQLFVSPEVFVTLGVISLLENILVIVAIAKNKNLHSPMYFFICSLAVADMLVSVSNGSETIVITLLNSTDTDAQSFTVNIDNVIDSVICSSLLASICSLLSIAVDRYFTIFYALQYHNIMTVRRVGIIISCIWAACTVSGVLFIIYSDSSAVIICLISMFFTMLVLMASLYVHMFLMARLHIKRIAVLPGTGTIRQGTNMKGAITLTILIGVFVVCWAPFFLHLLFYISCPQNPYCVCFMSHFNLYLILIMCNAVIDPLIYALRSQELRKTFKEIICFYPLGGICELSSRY

Compound | mMC4R relative percentage of stimulation at 100 μM [2] [%] | Kb [3] [nM] | mMC3R pharmacology class printed in Fold Diff column (Ant, SA) [3] | mMC1R Fold Diff [4] | EC50 [4] | EC50 [5] [nM] | mMC5R pharmacology in words [5] | mMC3R relative percentage of stimulation at 100 μM [6, 11] [%] | Kb [7] [nM] | mMC4R pharmacology class printed in Fold Diff. column (Ant, SA) [7] | mMC5R Fold Diff. [5] | other results
Ac-His-(pI)DPhe-Arg-Trp-NH2 [Peptide 45] | – | – | – | – | – | – | – | – | – | – | – | EC50 ([1]; ref [32]): 1.6 ± 0.4 nM
CCCCCCCC(=O)N[C@@H](Cc1c[nH]cn1)C(=O)N[C@H](Cc1ccc(I)cc1)C(=O)N[C@@H](CCCNC(=N)N)C(=O)N[C@@H](Cc1c[nH]c2ccccc12)C(N)=O [Peptide 6, Octanoyl-His-(pI)DPhe-Arg-Trp-NH2] | 30 | 5.01 | Ant | −22 | 6.3 ± 2.4 nM | 5.8 ± 1.7 | equipotent | 50 | 2.51 | Ant | – | mMC3R relative percentage of stimulation at 100 μM ([6]; 100000.0): 50%−65%; Ki [7]: ~3 nM
Ac-His-DPhe-Arg-3Bal-NH2 [Peptide 44] | – | – | – | – | – | – | – | – | – | – | – | EC50 ([1]; ref [31]): 48 ± 4 nM; EC50 ([8]; ref [31]): 3700 ± 1400 nM; EC50 ([9]; ref [31]): 80 ± 9 nM; EC50 [10]: 140 ± 20 nM
CC(=O)N[C@@H](Cc1c[nH]cn1)C(=O)N[C@H](Cc1ccc(-c2ccccc2)cc1)C(=O)N[C@@H](CCCNC(=N)N)C(=O)N[C@@H](Cc1csc2ccccc12)C(N)=O [Peptide 34, Ac-His-DBip-Arg-3Bal-NH2] (Ac-H[dBip]R[Bta]-NH2) | 65 | 316 | SA Ant | −16 | 9 nM and 8.9 nM | 6.9 ± 0.2 | equipotent agonists | 55 | 20 | SA Ant | – | mMC1R pharmacology in words [4]: more potent; mMC1R fold difference in EC50, more potent than reference peptide 1 ([4]; more potent agonist than 1): 16 fold
Octanoyl-His-DPhe-Arg-Trp-NH2 [Peptide 54] | – | – | – | – | – | – | – | – | – | – | – | EC50 ([1]; ref [34]): 0.79 ± 0.25 nM; EC50 ([8]; ref [34]): 4 ± 0.7 nM
CC(=O)N[C@@H](Cc1cccs1)C(=O)N[C@H](Cc1ccc(I)cc1)C(=O)N[C@@H](CCCNC(=N)N)C(=O)N[C@@H](Cc1c[nH]c2ccccc12)C(N)=O [Peptide 14, Ac-2Thi-(pI)DPhe-Arg-Trp-NH2] (Ac-[2Thi][dPhe(4-I)]RW-NH2) | 55 | 39.8 | SA Ant | – | 490 ± 150 nM | 71 ± 30 | – | 40 | 3.98 | SA Ant | 14 | mMC1R pharmacology in words [4]: equipotent; mMC5R fold less potent than peptide 1 [5]: 11- to 25 fold
Ac-DHis-DPhe-Arg-Trp-NH2 [Peptide 53] | – | – | – | – | – | – | – | – | – | – | – | EC50 ([1]; ref [33]): 140 ± 20 nM; EC50 ([8]; ref [33]): 6200 ± 2500 nM
CC(=O)N[C@@H](Cc1cccs1)C(=O)N[C@H](Cc1ccccc1)C(=O)N[C@@H](CCCNC(=N)N)C(=O)N[C@@H](Cc1c[nH]c2ccccc12)C(N)=O [Peptide 52, Ac-2Thi-DPhe-Arg-Trp-NH2] (Ac-[2Thi][dF]RW-NH2) | – | – | – | – | – | – | – | – | – | – | – | EC50 ([1]; ref [33]): 41 ± 13 nM; selectivity between the mMC1R and the mMC5R ([5]; monosubstituted reference peptides, from literature EC50 values of Table 3): ≤ 5 fold; EC50 ([8]; ref [33]): 3000 ± 300 nM; EC50 ([9]; ref [33]): 200 ± 40 nM
CC(=O)N[C@@H](Cc1c[nH]c2ccccc12)C(=O)N[C@H](Cc1ccc(-c2ccccc2)cc1)C(=O)N[C@@H](CCCNC(=N)N)C(=O)N[C@@H](Cc1c[nH]c2ccccc12)C(N)=O [Peptide 18, Ac-Trp-DBip-Arg-Trp-NH2] (Ac-W[dBip]RW-NH2) | 45 | 200 | Ant | 13 | 1800 ± 1000 nM | 1800 ± 1300 | non-selective mMC1R and mMC5R micromolar agonist profile | – | 100 | SA Ant | 340 | mMC1R pharmacology in words [4]: non-selective mMC1R and mMC5R micromolar agonist profile
CC(=O)N[C@@H](Cc1cccnc1)C(=O)N[C@H](Cc1ccc(I)cc1)C(=O)N[C@@H](CCCNC(=N)N)C(=O)N[C@@H](Cc1c[nH]c2ccccc12)C(N)=O [Peptide 12, Ac-3PAL-(pI)DPhe-Arg-Trp-NH2] (Ac-[3Pal][dPhe(4-I)]RW-NH2) | 35 | 100 | Ant | 34 | 4800 ± 1400 nM | 18000 ± 3000 | – | – | 5.01 | SA Ant | 3340 | mMC5R fold less potent than peptide 1 [5]: 3300 fold
CC(=O)N[C@@H](Cc1c[nH]cn1)C(=O)N[C@H](Cc1ccc(I)cc1)C(=O)N[C@@H](CCCNC(=N)N)C(=O)N[C@@H](Cc1ccc(-c2ccccc2)cc1)C(N)=O [Peptide 29, Ac-His-(pI)DPhe-Arg-Bip-NH2] (Ac-H[dPhe(4-I)]R[Bip]-NH2) | 30 | 200 | SA Ant | – | 47 ± 9 nM | 12.4 ± 2 | equipotent agonists; also recorded: very potent nanomolar agonist activity | 35 | 39.8 | SA Ant | – | –
CC(=O)N[C@@H](Cc1c[nH]cn1)C(=O)N[C@H](Cc1ccc(I)cc1)C(=O)N[C@@H](CCCNC(=N)N)C(=O)N[C@@H](Cc1csc2ccccc12)C(N)=O [Peptide 30, Ac-His-(pI)DPhe-Arg-3Bal-NH2] (Ac-H[dPhe(4-I)]R[Bta]-NH2) | 50 | 39.8 | SA Ant | – | 45 ± 14 nM | 3.2 ± 0.7 | equipotent agonists; also recorded: very potent nanomolar agonist activity | 25 | 10 | SA Ant | – | –
CC(=O)N[C@@H](Cc1c[nH]cn1)C(=O)N[C@H](Cc1ccc(-c2ccccc2)cc1)C(=O)N[C@@H](CCCNC(=N)N)C(=O)N[C@H](Cc1ccc(-c2ccccc2)cc1)C(N)=O [Peptide 35, Ac-His-DBip-Arg-DBip-NH2] (Ac-H[dBip]R[dBip]-NH2) | 23 | 200 | Ant | – | 90 ± 20 nM | 42 ± 7 | less potent | – | 158 | SA Ant | 8 | mMC1R pharmacology in words [4]: within 3-fold experimental error
CC(=O)N[C@@H](Cc1ccccc1)C(=O)N[C@H](Cc1ccc(I)cc1)C(=O)N[C@@H](CCCNC(=N)N)C(=O)N[C@@H](Cc1c[nH]c2ccccc12)C(N)=O [Peptide 15, Ac-Phe-(pI)DPhe-Arg-Trp-NH2] (Ac-F[dPhe(4-I)]RW-NH2) | 30 | 126 | SA Ant | 6 | 820 ± 320 nM | 140 ± 30 | – | 20 | 20 | SA Ant | 25 | mMC5R fold less potent than peptide 1 [5]: 11- to 25 fold

— article PMC6261661 (ACS chemical neuroscience, 2018)
